{"source": "patent US11746087B1", "about": "“C4-carboxylic acid-substituted tryptamine derivatives and methods of using” (priority 2022, dated 2023)", "assay": "Dosing solution concentration by LC-MS (measured vs nominal)", "format": "physicochemical", "details": "C(IV) nominal 0.1 mg/mL", "method": "Briefly, the procedure was as follows. […] 19, 2022.\nPharmacokinetic (PK) evaluations were performed in the same manner as described in Example 1, except compound C(IV) was used in place of compound C(V). […] Thus, only psilocin PK analysis was performed. […] Table 46 summarizes these “measured” concentrations along with corresponding “nominal” concentrations for each dosing solution. Results for psilocin PK following C(IV) administration are found in Tables 47A-47B (0.293 mg/kg IV dose), Tables 48A-48B (0.275 mg/kg oral dose), Tables 49A-49B (0.789 mg/kg oral dose), Tables 50A-50B (2.52 mg/kg oral dose), Table 51 (comparative summary for IV data), Table 52 (comparative summary for oral data), Table 53A (psilocin exposure) and FIGS. 10H (i) and 10H (ii).", "data": [{"smiles": "CN(C)CCc1c[nH]c2cccc(OC(=O)CC3CC3)c12", "note": "[C(IV)]", "values": [{"measurement": "Psilocin, measured, in C(IV) residual dosing solution", "result": 0.00174, "unit": "mg/mL"}]}]}
